Measured values taken from patent publication US9931346B2, “Serotonin-norepinephrine reuptake inhibitors (SNRIs) and Sigma receptor ligands combinations” (LABORATORIOS DEL DR. ESTEVE S.A., priority 2013, dated 2018).
Counter-ions that a name gives are not always drawn.

Tested on: mechanical allodynia of the post-operative pain model
Test: Mechanical allodynia (von Frey filaments) in the post-operative pain model (plantar incision) in rats
Assay type: in vivo
Protocol: The induction of anesthesia in rats was performed with 3% isofluran for veterinary use, employing an Ohmeda vaporizer and an anesthesia chamber. Anesthesia was kept during the surgical operation by a tube which directs the isofluran vapors to the animal's snout. Once the rats were anesthetized, they were laid down in a prone position and their right hind paws were cleaned out with alcohol.
Then, a skin incision in the hindpaw of about 10 mm was made by means of a scalpel, starting about 5 mm from the heel and extending toward the toes. Fascia was located and by means of curve scissors muscle was elevated and a longitudinal incision of about 5 mm was made, thus the muscle origin and insertion remained intact. The skin of the paw was stitched with a suturing stitch with breaded silk (3.0) and the wound was cleaned out with povidone.
The assessment was performed 30 minutes after the administration of product and always 4 hours after the plantar incision. The analysis was carried out evaluating the mechanical allodynia. It was tested using von Frey filaments: Animals were placed in methacrylate cylinders on an elevated surface, with metallic mesh floor perforated in order to apply the filaments. After an acclimation period of about 30 minutes within the cylinders, both hindpaws were stimulated (the injured and the non-injured paw, serving the latter as control), starting with the lowest force filament (0.4 g) and reaching a 15 g filament. The animal's response to pain was manifested by the withdrawal of the paw as a consequence of the painful stimulus caused by a filament.
(§1) The efficacy of the combined use of venlafaxine and compound 63.HCl was tested at different doses of compound 63.HCl (5, 10, 20, 40 and 80 mg/kg), while the venlafaxine dose remained constant (2.5 mg/kg). The administrations were performed 3.5 hours after surgery. The treated subjects were tested according to the mechanical allodynia protocol above (FIG. 1).
as §1, with “duloxetine” for “venlafaxine”, “(10,” for “(5, 10,”, “(0.625” for “(2.5”, “2).” for “1).”

## COc1ccc(C(CN(C)C)C2(O)CCCCC2)cc1 (stereo not shown) [Venlafaxine, venlafaxine]
FIG. 1, Venlafaxine alone, sub-active dose 2.5 mg/kg
  effect on mechanical allodynia (analgesia): non-significant effect

## Cc1cc(OCCN2CCOCC2)nn1-c1ccc2ccccc2c1 [compound 63.HCl, 4-{2-[5-Methyl-1-(naphthalen-2-yl)-1H-pyrazol-3-yloxy]ethyl}morpholine hydrochloride]
FIG. 1, compound 63.HCl alone, 5-80 mg/kg, assessed 30 min after administration, 4 h after plantar incision
  maximum effect (analgesia, mechanical allodynia): 43%
Rattus norvegicus, FIG. 2, compound 63.HCl alone, 10-80 mg/kg, read-out: ED50 (analgesia, mechanical allodynia)
  ED50: 40 mg/kg

## CNCC[C@H](Oc1cccc2ccccc12)c1cccs1 [Duloxetine, duloxetine]
FIG. 2, Duloxetine alone, sub-active dose 0.625 mg/kg
  effect on mechanical allodynia (analgesia): non-significant effect
